Assay results from patent publication US20160279175A1, “METHODS FOR REDUCING DEVELOPMENT OF RESISTANCE TO ANTIBIOTICS” (REGENTS OF THE UNIVERSITY OF MINNESOTA, priority 2015, published 2016).
Bridge positions count the residues as written; N and C are the ends. Ends that are not written are not given here.

Key:
[1] = test system: vancomycin-resistant E. faecium; assay type: cell-based, Enterococcus faecium; details: for reduction of E. faecium counts, antibiotic combined with the three peptides: combination with Enterocin A, Enterocin P, Hiracin JM79; for synergy of the AMPs with the antibiotic: antibiotic combined with supernatant containing the three AMPs, data not shown; for activity of antibiotic alone against E. faecium: clinically relevant concentrations: 50 μg/mL streptomycin, 100 μg/mL ampicillin, 30 μg/mL rifampicin
Description: L. lactis containing pNZCA3 was grown overnight in BHI. Cells were then re-inoculated in fresh BHI at an OD600 of 0.07-0.1. Because BHI contains ˜0.15 M NaCl, no additional salt was added for induction. Cells were then grown ˜6 hours then cell-free culture supernatant was obtained by centrifugation of culture at 12,000×g at 4° C. for 10 min, filtered through 0.2 μm pore-size filters (Whatman Int. Ltd., Maidstone, UK), and stored at −20° C. until use.
E. faecium was grown overnight in BHI at 37° C. and L. lactis-pNZCA3 was grown in BHI at 32° C. E. faecium was then inoculated at an OD600 of ˜0.06 into 5 ml fresh BHI broth, and allowed to grow to an OD600 of ˜0.1. For antibiotic experiments, 50 μg/mL streptomycin (Chem-Implex Int'l Inc., Wood Dale, Ill., U.S.A.), 100 μg/mL ampicillin (Sigma), or 30 μg/mL rifampicin (Gilbert et al., 2013, The Sanford Guide to Antimicrobial Therapy 2013 43 Pocth Edition|Rent 9781930808744|11930808747. Antimicrob. Ther.) were added to the fresh BHI broth. Cultures were then supplemented with 10% of the previously obtained supernatant or 10% of L. lactis-pNZCA3 culture at an OD600 of ˜0.1 (time=0 hours). […] Samples of the cultures were then taken at different times, serial diluted, and plated (10 μL of each dilution) on GM17 plates containing 5 μg/mL rifampicin (GM17-Rif) or 5 μg/mL chloramphenicol (GM17-Cm) and incubated overnight at 37° C. The following day E. faecium or L. lactis colony forming units (CFU) were counted on GM17-Rif and GM17-Cm plates, respectively.
Data for FIG. 9 represent technical triplicates obtained from one of three individual tests.

[2] = test system: wild type E. faecium 8E9 and EntA/EntP/HirJM79-resistant mutant of E. faecium 8E9; test: Agar diffusion assay of pure Enterocin B; assay type: cell-based, Enterococcus faecium; details: 1 μg and 0.1 μg enterocin B
Description: For the agar diffusion activity assays, liquid brain heart infusion (BHI) agar was inoculated with 0.5 μL of E. faecium overnight culture per mL medium. The inoculated agar was then poured into a petri dish and allowed to solidify. For all L. lactis halos, a colony of L. lactis was touched with a sterile pipette tip then stabbed into the inoculated agar. For purified EntB halos (FIG. 14 only), 1 μL of the appropriate EntB concentration was dropped onto the inoculated agar and allowed to dry completely. Dry plates were then covered and incubated overnight at 37° C. for imaging the following day.

| Molecule | reduction of E. faecium counts, antibiotic combined with the three peptides [1] | halo size, wild type versus class IIa resistant mutant [2] | synergy of the AMPs with the antibiotic [1] | activity of antibiotic alone against E. faecium [1] |
| --- | --- | --- | --- | --- |
| O=C(N[C@H](CO)[C@H](O)c1ccc([N+](=O)[O-])cc1)C(Cl)Cl [chloramphenicol] | did not exhibit similarly impressive reductions | – | – | – |
| Enterocin B: 53 amino acid bacteriocin of Enterococcus faecium, SEQ ID NO:42, disulfide bridge 23-52, synthesized by Ontores (ENDHRMPNELNRPNNLSKGGAKCGAAIAGGLFGIPKGPLAWAAGLANVYSKCN; disulfide 23-52) | – | similarly sized halos for both the wild type and resistant mutant | – | – |
| CC1(C)S[C@@H]2[C@H](NC(=O)[C@H](N)c3ccccc3)C(=O)N2[C@H]1C(=O)O [ampicillin] | did not exhibit similarly impressive reductions | – | minor | none of these drugs showed significant activity |
| [H]/N=C(/N)N[C@H]1[C@H](O)[C@@H](O)[C@H](O[C@@H]2O[C@@H](C)[C@](O)(C=O)[C@H]2O[C@@H]2O[C@@H](CO)[C@H](O)[C@@H](O)[C@@H]2NC)[C@@H](N/C(N)=N\[H])[C@@H]1O [streptomycin] | – | – | minor | none of these drugs showed significant activity |
| CC[C@H]1OC(=O)[C@H](C)[C@@H](O[C@H]2C[C@@](C)(OC)[C@@H](O)[C@H](C)O2)[C@H](C)[C@@H](O[C@@H]2O[C@H](C)C[C@H](N(C)C)[C@H]2O)[C@](C)(O)C[C@@H](C)C(=O)[C@H](C)[C@@H](O)[C@]1(C)O [erythromycin] | did not exhibit similarly impressive reductions | – | – | – |
